Results on eight compounds are retold here after patent US10793557B2, “Sting agonist compounds” (Merck Sharp & Dohme Corp., priority 2018, dated 2020).

One experiment has as its target T1, full-length HAQ STING (Homo sapiens, UniProt Q86WV6, G230A/H232R/R293Q/R71H).
T1 construct: AviTag (after GG linker) (C); HRV3C cleavage site (after GS linker) (C); HIS8 (C); made in house; host or cells: Trichoplusia ni (Hi-Five) insect cells infected with baculovirus (virus generated and amplified in Sf21 cells); used as a washed membrane preparation
Kind of experiment: 3H-cGAMP filtration binding assay (HAQ STING). The settings on record: competition with tritiated cGAMP, HAQ STING membrane. In a few lines: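 Hi-Five (T. ni) membranes overexpressing the STING variant (2.2 ug/ml working) preincubated with compound 60 min at RT in PBS, then [3H]cGAMP (8 nM working stock) added for 60 min at RT. Bound radioactivity captured on GF/B filters and counted by scintillation; EC50 from 4-parameter fit of control-normalized activity.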

A further experiment has as its target T2, full-length WT STING (Homo sapiens, UniProt Q86WV6, H232R).
T2 construct: AviTag (after gg linker) (C); HRV3C cleavage site (after gs linker) (C); HIS8 (C); made in house; host or cells: Trichoplusia ni (Hi-Five) insect cells infected with baculovirus (virus generated and amplified in Sf21 cells); used as a washed membrane preparation
Kind of experiment: 3H-cGAMP filtration binding assay (WT STING). The conditions noted are these: for EC50: competition with tritiated cGAMP, WT STING membrane. In a few lines: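 EC50 values come from 4-parameter fits of remaining filter-bound tritium versus log concentration (10-point, 1:3 dilution). Insect-cell membranes carrying full-length WT STING were incubated 60 min at RT with compound and tritiated cGAMP (16 nM working stock) before filtration.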

In experiment [1] the test system is secretion of interferon-beta from THP1 cells. Kind of experiment: IFN-β secretion in THP1 cell culture (5 h). Format: cell-based. The conditions noted are these: Homo sapiens, THP-1, 5 h, 30 uM cGAMP = 100%; for activation at 30 µM: compound at 30 μM, read-out: % Effect at 30 μM relative to 2′3′-cGAMP. The procedure, abridged:
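IFN-β in supernatant measured by AlphaLISA after a 5 h, 37 °C incubation of THP1 cells with compound (10 concentrations, 30000 down to 1.5 nM, 0.3% DMSO) in low-serum RPMI. Values scaled between DMSO and 30 uM cGAMP controls; 4-parameter curve fit yields EC50.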

T1 sequence (Q86WV6 with tags, fused parts or gaps R71H/G230A/H232R/R293Q): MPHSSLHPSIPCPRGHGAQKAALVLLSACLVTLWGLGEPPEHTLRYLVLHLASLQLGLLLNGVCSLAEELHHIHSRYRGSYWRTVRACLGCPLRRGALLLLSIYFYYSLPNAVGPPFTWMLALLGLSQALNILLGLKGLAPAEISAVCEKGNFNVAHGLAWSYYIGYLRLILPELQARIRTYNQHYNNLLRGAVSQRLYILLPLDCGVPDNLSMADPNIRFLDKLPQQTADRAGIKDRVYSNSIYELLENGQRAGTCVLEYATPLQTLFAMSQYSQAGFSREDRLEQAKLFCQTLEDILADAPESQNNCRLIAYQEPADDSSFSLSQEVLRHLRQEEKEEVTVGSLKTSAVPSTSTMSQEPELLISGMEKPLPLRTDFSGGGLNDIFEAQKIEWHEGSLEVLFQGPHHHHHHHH
T2 sequence (Q86WV6 with tags, fused parts or gaps H232R): as the sequence (Q86WV6 with tags, fused parts or gaps R71H/G230A/H232R/R293Q) above, with H71R, A230G, Q293R counted along it

As to `COc1cc2cc(C(=O)C[C@H](C)C(=O)O)sc2cc1OCCCOc1c(OC)cc2sc(C(=O)[C@@H]3CC[C@H]3C(=O)O)cc2c1F` [Example 171, trans-2-(5-(3-((2-((S)-3-carboxybutanoyl)-5-methoxybenzo[b]thiophen-6-yl)oxy)propoxy)-4-fluoro-6-methoxybenzo[b]thiophene-2-carbonyl)cyclobutanecarboxylic acid], the concentration for a half-maximal effect (EC50) (as a rule, the concentration that produces a half-maximal response) at full-length HAQ STING is 9 nM; on full-length WT STING, 59 nM. For the same compound, in experiment [1], the activation at 30 µM was 97%.

As to `COc1cc2sc(C(=O)C[C@H](C)C(=O)O)cc2c(Cl)c1OCCCCOc1c(OC)cc2sc(C(=O)C[C@H](C)C(=O)O)cc2c1Cl` [Example 172, (2S,2′S)-4,4′-(5,5′-(butane-1,4-diylbis(oxy))bis(4-chloro-6-methoxybenzo[b]thiophene-5,2-diyl))bis(2-methyl-4-oxobutanoic acid)], the concentration giving a half-maximal response (EC50) came to 454 nM at full-length HAQ STING and 15100 nM at full-length WT STING. The activation at 3 µM in experiment [1] (compound at 3 uM, read-out: % Effect relative to 2′3′-cGAMP (@ 3 uM)) is 16%.

Take `COc1cc2sc(C(=O)CCC(=O)O)cc2nc1CCCOc1c(OC)cc2sc(C(=O)CCC(=O)O)cc2c1F` [Example 173]: the figures for the 50% effective concentration (EC50) on full-length HAQ STING and at full-length WT STING were 1 nM and 3 nM, respectively. Also, in experiment [1], the activation at 30 µM was 127%.

Turning to `COc1cc2sc(C(=O)CCC(=O)O)cc2nc1CCCOc1c(OC)cc2sc(C(=O)C[C@H](C)C(=O)O)cc2c1F` [Example 174, (S)-4-(5-(3-(2-(3-carboxypropanoyl)-6-methoxythieno[3,2-b]pyridin-5-yl)propoxy)-4-fluoro-6-methoxybenzo[b]thiophen-2-yl)-2-methyl-4-oxobutanoic acid], the concentration giving a half-maximal response (EC50) at full-length HAQ STING and at full-length WT STING was 1 nM throughout. The activation at 30 µM in experiment [1] amounted to 88%.

For the compound `COc1cc2sc(C(=O)CCC#N)cc2cc1CCCc1cc2cc(C(=O)CCC#N)sc2cc1OC` [Example 175, 4,4′-(Propane-1,3-diylbis(6-methoxybenzo[b]thiophene-5,2-diyl))bis(4-oxobutanenitrile)], at full-length HAQ STING, the half-maximal effective concentration (EC50) came to 4020 nM. Moreover, the inhibition – broadly, the drop in the measured response relative to a control, in per cent – at 20 µM at full-length WT STING (at 20,000 nM compound) is 46%. Moreover, in experiment [1], the activation at 30 µM stood at 13%.

As for `COc1cc2sc(C(=O)C[C@H](C)C(=O)O)cc2cc1NCCCOc1c(OC)cc2sc(C(=O)C[C@H](C)C(=O)O)cc2c1F` [Example 176, (S)-4-(5-((3-((2-((S)-3-Carboxybutanoyl)-4-fluoro-6-methoxybenzo [b]thiophen-5-yl)oxy)propyl)amino)-6-methoxybenzo[b]thiophen-2-yl)-2-methyl-4-oxobutanoic acid], the concentration for a half-maximal effect (EC50) at full-length HAQ STING was 1 nM; on full-length WT STING it was 2 nM. The activation at 30 µM in experiment [1] was 44%.

On to `COc1cc2sc(C(=O)CCC(=O)O)cc2cc1CCCNc1cc2cc(C(=O)C[C@H](C)C(=O)O)sc2cc1OC` [Example 177, (S)-4-(5-((3-(2-(3-carboxypropanoyl)-6-methoxybenzo[b]thiophen-5-yl)propyl)amino)-6-methoxybenzo[b]thiophen-2-yl)-2-methyl-4-oxobutanoic acid], for which the EC50 was 68 nM at full-length HAQ STING and 720 nM on full-length WT STING. Further, the activation at 30 µM in experiment [1] was determined as 80%.

For `COc1cc2sc(C(=O)C[C@H](C)C(=O)O)cc2cc1OCCCOc1c(OC)cc2sc(C(=O)C[C@H](C)C(=O)NS(=O)(=O)N(C)C)cc2c1F` [Example 178, (S)-4-(5-(3-((2-((S)-4-((N,N-Dimethylsulfamoyl)amino)-3-methyl-4-oxobutanoyl)-4-fluoro-6-methoxybenzo[b]thiophen-5-yl)oxy)propoxy)-6-methoxybenzo[b]thiophen-2-yl)-2-methyl-4-oxobutanoic acid], the values for the EC50 on full-length HAQ STING and at full-length WT STING were 4 nM and 31 nM, respectively. For the same compound, in experiment [1], the activation at 30 µM amounted to 107%.
